Measured values reported in ChEMBL document CHEMBL4402510, “Caprazamycins: Promising lead structures acting on a novel antibacterial target MraY” (Eur J Med Chem, 2019).
≈ marks a conversion by molar mass, not a printed value. Blank lines part the entries; values can stand above or below the compound they belong to.

Columns and labels:
[1] = target: T1, Phospho-N-acetylmuramoyl-pentapeptide-transferase (Aquifex aeolicus (strain VF5), UniProt O66465); test: Inhibition of MraY in Aquifex aeolicus
T1 sequence (O66465 whole entry): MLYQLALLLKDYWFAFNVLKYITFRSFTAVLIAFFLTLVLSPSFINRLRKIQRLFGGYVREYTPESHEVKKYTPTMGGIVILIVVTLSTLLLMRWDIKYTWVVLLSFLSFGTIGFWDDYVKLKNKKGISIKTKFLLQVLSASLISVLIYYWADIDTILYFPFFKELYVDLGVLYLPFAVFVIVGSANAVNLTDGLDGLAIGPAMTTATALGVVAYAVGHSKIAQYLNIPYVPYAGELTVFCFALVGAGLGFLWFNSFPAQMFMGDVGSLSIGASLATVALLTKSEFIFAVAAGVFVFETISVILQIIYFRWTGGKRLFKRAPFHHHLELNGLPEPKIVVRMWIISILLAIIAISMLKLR

[2] = system: Escherichia coli; test: Antibacterial activity against Escherichia coli expressing MraY; assay type: functional, organism-based
[3] = target: T2, Phospho-N-acetylmuramoyl-pentapeptide-transferase (Bacillus subtilis (strain 168), UniProt Q03521); test: Inhibition of MraY in Bacillus subtilis
T2 sequence (Q03521 whole entry): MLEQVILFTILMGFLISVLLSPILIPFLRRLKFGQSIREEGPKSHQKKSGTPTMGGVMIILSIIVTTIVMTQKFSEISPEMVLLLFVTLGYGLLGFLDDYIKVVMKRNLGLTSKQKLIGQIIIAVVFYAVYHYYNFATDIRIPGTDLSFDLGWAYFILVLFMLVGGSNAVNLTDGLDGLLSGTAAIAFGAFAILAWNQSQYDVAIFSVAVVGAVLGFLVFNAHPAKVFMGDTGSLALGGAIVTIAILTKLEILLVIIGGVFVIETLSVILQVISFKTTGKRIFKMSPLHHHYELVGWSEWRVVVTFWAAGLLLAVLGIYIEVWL

[4] = system: Enterococcus faecium; test: Antibacterial activity against Enterococcus faecium SR7917 (VRE); assay type: functional
[5] = system: Staphylococcus aureus; test: Antibacterial activity against methicillin susceptible Staphylococcus aureus ATCC 29213; assay type: functional
[6] = system: Enterococcus faecalis; test: Antibacterial activity against Enterococcus faecalis SR7914 (VRE); assay type: functional
[7] = system: Staphylococcus aureus; test: Antibacterial activity against methicillin resistant Staphylococcus aureus SR3637; assay type: functional
[8] = system: Enterococcus faecalis; test: Antibacterial activity against Enterococcus faecalis ATCC 29212; assay type: functional

Structure (SMILES): NC[C@H]1O[C@@H](O[C@@H](Cc2cn(CCCCCCCCCCOc3ccc(C(=O)c4ccccc4)cc3)nn2)[C@H]2O[C@@H](n3ccc(=O)[nH]c3=O)[C@H](O)[C@@H]2O)[C@H](O)[C@@H]1O
- IC50 [1]: 25 µM

Structure (SMILES): NCCCCCn1cc([C@H](O[C@@H]2O[C@H](CN)[C@@H](O)[C@H]2O)[C@H]2O[C@@H](n3ccc(=O)[nH]c3=O)[C@H](O)[C@@H]2O)nn1
- IC50 [3]: > 1000 µM

Structure (SMILES): CC(C)NC[C@H]1O[C@@H](OC[C@H]2O[C@@H](n3ccc(=O)[nH]c3=O)[C@H](O)[C@@H]2O)[C@H](O)[C@@H]1O
- IC50 [2]: 180 µM

Structure (SMILES): O=c1ccn([C@@H]2O[C@H](CO[C@@H]3O[C@H](CO)[C@@H](O)[C@H]3O)[C@@H](O)[C@H]2O)c(=O)[nH]1
- IC50 [2]: > 1000 µM

Structure (SMILES): CC(=O)NC[C@H]1O[C@@H](OC[C@H]2O[C@@H](n3ccc(=O)[nH]c3=O)[C@H](O)[C@@H]2O)[C@H](O)[C@@H]1O
- IC50 [2]: > 1000 µM

Structure (SMILES): NC[C@H]1O[C@@H](O[C@@H](c2cn(C3CCCCCC3)nn2)[C@H]2O[C@@H](n3ccc(=O)[nH]c3=O)[C@H](O)[C@@H]2O)[C@H](O)[C@@H]1O
- IC50 [3]: > 1000 µM

Structure (SMILES): CCNC[C@H]1O[C@@H](OC[C@H]2O[C@@H](n3ccc(=O)[nH]c3=O)[C@H](O)[C@@H]2O)[C@H](O)[C@@H]1O
- IC50 [2]: 150 µM

Structure (SMILES): NC[C@H]1O[C@@H](OC[C@H]2O[C@@H](n3ccc(=O)[nH]c3=O)[C@H](O)[C@@H]2O)C[C@@H]1O
- IC50 [2]: 115 µM

Structure (SMILES): CCCCCCCCCCCCCCC[C@H](NC(=O)[C@@H](N)CCCNC(=N)N)C(=O)NC[C@@H]1CC2[C@@H](C(=O)N1)[C@H]([C@H]1O[C@@H](n3ccc(=O)[nH]c3=O)[C@H](O)[C@@H]1O)ON2CCCN (single isomer, unassigned)
- MIC [4]: 16 µg/mL (≈ 18.5 µM)
- MIC [5]: > 64 µg/mL
- MIC [6]: 32 µg/mL (≈ 37 µM)
- MIC [7]: 32 µg/mL (≈ 37 µM)
- MIC [8]: 16 µg/mL (≈ 18.5 µM)

Structure (SMILES): CCCCCCCCCCCCCCC[C@H](NC(=O)[C@@H](N)CCCNC(=N)N)C(=O)NC[C@@H]1CC[C@H]2C(C(=O)N1)[C@H]([C@H]1O[C@@H](n3ccc(=O)[nH]c3=O)[C@H](O)[C@@H]1O)ON2CCCN (single isomer, unassigned)
- MIC [4]: 8 µg/mL (≈ 9.11 µM)
- MIC [5]: 16 µg/mL (≈ 18.2 µM)
- MIC [6]: 16 µg/mL (≈ 18.2 µM)
- MIC [7]: 32 µg/mL (≈ 36.4 µM)
- MIC [8]: 16 µg/mL (≈ 18.2 µM)

More lines, now with the values ahead:

- IC50 [1]: 200 µM
Structure (SMILES): NCCCCCCCCCn1cc(C[C@H](O[C@@H]2O[C@H](CN)[C@@H](O)[C@H]2O)[C@H]2O[C@@H](n3ccc(=O)[nH]c3=O)[C@H](O)[C@@H]2O)nn1

- IC50 [2]: > 1000 µM
Structure (SMILES): CN(C)C[C@H]1O[C@@H](OC[C@H]2O[C@@H](n3ccc(=O)[nH]c3=O)[C@H](O)[C@@H]2O)[C@H](O)[C@@H]1O

- IC50 [3]: 250 µM
Structure (SMILES): NC[C@H]1O[C@@H](O[C@@H](c2cn(CCCc3ccccc3)nn2)[C@H]2O[C@@H](n3ccc(=O)[nH]c3=O)[C@H](O)[C@@H]2O)[C@H](O)[C@@H]1O

- IC50 [3]: 400 µM
Structure (SMILES): NC[C@H]1O[C@@H](O[C@@H](c2cn(CCc3ccc(-c4ccccc4)cc3)nn2)[C@H]2O[C@@H](n3ccc(=O)[nH]c3=O)[C@H](O)[C@@H]2O)[C@H](O)[C@@H]1O

- IC50 [2]: 120 µM
Structure (SMILES): NC[C@H]1O[C@@H](OC[C@@H]2CC[C@H](n3ccc(=O)[nH]c3=O)O2)[C@H](O)[C@@H]1O

- IC50 [2]: 10 µM
Structure (SMILES): NC[C@H]1O[C@@H](OC[C@@H]2C[C@@H](O)[C@H](n3ccc(=O)[nH]c3=O)O2)[C@H](O)[C@@H]1O

- IC50 [2]: > 1000 µM
Structure (SMILES): O=CNC[C@H]1O[C@@H](OC[C@H]2O[C@@H](n3ccc(=O)[nH]c3=O)[C@H](O)[C@@H]2O)[C@H](O)[C@@H]1O

- IC50 [2]: 140 µM
Structure (SMILES): CCCNC[C@H]1O[C@@H](OC[C@H]2O[C@@H](n3ccc(=O)[nH]c3=O)[C@H](O)[C@@H]2O)[C@H](O)[C@@H]1O

- IC50 [3]: > 1000 µM
Structure (SMILES): NC[C@H]1O[C@@H](O[C@@H](c2cn(CCCO)nn2)[C@H]2O[C@@H](n3ccc(=O)[nH]c3=O)[C@H](O)[C@@H]2O)[C@H](O)[C@@H]1O

- IC50 [2]: 45 µM
Structure (SMILES): CNC[C@H]1O[C@@H](OC[C@H]2O[C@@H](n3ccc(=O)[nH]c3=O)[C@H](O)[C@@H]2O)[C@H](O)[C@@H]1O

- IC50 [1]: 750 µM
Structure (SMILES): NC[C@H]1O[C@@H](O[C@@H](Cc2cn(CCOCCOCCOCCOCCO)nn2)[C@H]2O[C@@H](n3ccc(=O)[nH]c3=O)[C@H](O)[C@@H]2O)[C@H](O)[C@@H]1O

- IC50 [1]: 100 µM
Structure (SMILES): NC[C@H]1O[C@@H](O[C@@H](Cn2cc(Cc3ccc(COc4ccc(C(=O)c5ccccc5)cc4)cc3)nn2)[C@H]2O[C@@H](n3ccc(=O)[nH]c3=O)[C@H](O)[C@@H]2O)[C@H](O)[C@@H]1O
